According to PMC6759796, “Integrating Pharmacokinetics Study, Network Analysis, and Experimental Validation to Uncover the Mechanism of Qiliqiangxin Capsule Against Chronic Heart Failure” (Frontiers in Pharmacology, 2019):

Experiment: in vivo
Settings: Sprague-Dawley, rat, po

Compound	Tmax [h]	half-life [h]
CC(C)=CCC[C@](C)(O)[C@H]1CC[C@]2(C)[C@@H]1[C@H](O)C[C@@H]1[C@@]3(C)CC[C@H](O)C(C)(C)[C@@H]3[C@@H](O[C@@H]3O[C@H](CO)[C@@H](O)[C@H](O)[C@H]3O[C@@H]3O[C@H](CO)[C@@H](O)[C@H](O)[C@H]3O)C[C@]12C [Ginsenoside Rf]	0.67	6.12 ± 3.53
COC[C@@]12CC[C@H](OC)[C@]34C(C([C@H](OC)[C@H]13)[C@]1(OC(C)=O)[C@H]3[C@@H](OC(=O)c5ccccc5)[C@](O)(C[C@H]34)[C@@H](OC)[C@@H]1O)N(C)C2 [Hypaconitine]	0.33	8.01 ± 2.39
O=C(/C=C/c1ccc(O)c(O)c1)O[C@H](Cc1ccc(O)c(O)c1)C(=O)O [Rosmarinic acid]	0.67	5.28 ± 1.35
CC(C)=CCC[C@](C)(O[C@@H]1O[C@H](CO)[C@@H](O)[C@H](O)[C@H]1O)[C@H]1CC[C@]2(C)[C@@H]1[C@H](O)C[C@@H]1[C@@]3(C)CC[C@H](O[C@@H]4O[C@H](CO)[C@@H](O)[C@H](O)[C@H]4O)C(C)(C)[C@@H]3CC[C@]12C [Ginsenoside F2]	0.67	6.23 ± 2.89
C[C@@H]1O[C@@H](OC[C@H]2O[C@@H](Oc3c(-c4ccc(O)c(O)c4)oc4cc(O)cc(O)c4c3=O)[C@H](O)[C@@H](O)[C@@H]2O)[C@H](O)[C@H](O)[C@H]1O [Rutin]	0.33	5.33 ± 1.27
O=C(/C=C/c1ccc(O)c(O)c1/C=C/c1ccc(O)c(O)c1)O[C@H](Cc1ccc(O)c(O)c1)C(=O)O [Salvianolic acid A]	0.17	7.5 ± 4.92

Experiment: not given
Design: unit not given beside the values
Settings: rat, in vivo, po

Compound	AUC0∼t	AUC0∼∞
COc1ccc(-c2coc3cc(O[C@@H]4O[C@H](CO)[C@@H](O)[C@H](O)[C@H]4O)ccc3c2=O)cc1O [Calycosin-7-glucoside]	103.26 ± 47.63	120.71 ± 50.71
O=C(O)[C@H](O)Cc1ccc(O)c(O)c1 [Danshensu]	290.92 ± 68.38	390.90 ± 66.50
Salvianolic acid B	818.47 ± 249.00	980.47 ± 112.07
COc1ccc([C@@H]2CC(=O)c3c(O)cc(O[C@@H]4O[C@H](CO[C@@H]5O[C@@H](C)[C@H](O)[C@@H](O)[C@H]5O)[C@@H](O)[C@H](O)[C@H]4O)cc3O2)cc1O [Hesperidin]	154.32 ± 66.50	187.77 ± 34.98
COc1cc(/C=C/C(=O)OCC[N+](C)(C)C)cc(OC)c1O.O=S(=O)([O-])O [Sinapine bisulfate]	3.98 ± 1.21	8.76 ± 2.85
CC(C)=CCC[C@](C)(O)[C@H]1CC[C@]2(C)[C@@H]1[C@H](O)C[C@@H]1[C@@]3(C)CC[C@H](O[C@@H]4O[C@H](CO)[C@@H](O)[C@H](O)[C@H]4O[C@@H]4O[C@H](CO)[C@@H](O)[C@H](O)[C@H]4O)C(C)(C)[C@@H]3CC[C@]12C [Ginsenoside Rg3]	67.13 ± 27.93	89.81 ± 34.43

Experiment: Pharmacokinetics of 29 QLQX components in rat plasma by HPLC-MS/MS after intragastric QLQX
Settings: Sprague-Dawley, rat, in vivo, po, […]

Compound	Tmax [h]	half-life [h]
CCN1C[C@]2(COC)[C@H](O)C[C@H](OC)[C@@]34[C@@H]5C[C@@]6(O)[C@H](OC(=O)c7ccccc7)[C@@H]5[C@@](OC(C)=O)([C@@H]([C@H](OC)[C@H]23)[C@@H]14)[C@@H](O)[C@@H]6OC [Aconitine]	0.33	18.4 ± 5.44

Same assay, conditions: Sprague-Dawley, rat, plasma, po, […]

Tmax [h]	half-life [h]	Compound
0.67 ± 0.06	7.33 ± 3.45	CC(C)=CCC[C@](C)(O[C@@H]1O[C@H](CO)[C@@H](O)[C@H](O)[C@H]1O)[C@H]1CC[C@]2(C)[C@@H]1[C@H](O)C[C@@H]1[C@@]3(C)CC[C@H](O)C(C)(C)[C@@H]3[C@@H](O[C@@H]3O[C@H](CO)[C@@H](O)[C@H](O)[C@H]3O[C@@H]3O[C@@H](C)[C@H](O)[C@@H](O)[C@H]3O)C[C@]12C [Ginsenoside Re]
0.67	5.9 ± 1.14	CC(C)=CCC[C@](C)(O[C@@H]1O[C@H](CO)[C@@H](O)[C@H](O)[C@H]1O)[C@H]1CC[C@]2(C)[C@@H]1[C@H](O)C[C@@H]1[C@@]3(C)CC[C@H](O[C@@H]4O[C@H](CO)[C@@H](O)[C@H](O)[C@H]4O[C@@H]4O[C@H](CO)[C@@H](O)[C@H](O)[C@H]4O)C(C)(C)[C@@H]3CC[C@]12C [Ginsenoside Rd]
0.67	9.16 ± 3.18	CC(C)=CCC[C@](C)(O[C@@H]1O[C@H](CO[C@@H]2O[C@H](CO)[C@@H](O)[C@H](O)[C@H]2O)[C@@H](O)[C@H](O)[C@H]1O)[C@H]1CC[C@]2(C)[C@@H]1[C@H](O)C[C@@H]1[C@@]3(C)CC[C@H](O[C@@H]4O[C@H](CO)[C@@H](O)[C@H](O)[C@H]4O[C@@H]4O[C@H](CO)[C@@H](O)[C@H](O)[C@H]4O)C(C)(C)[C@@H]3CC[C@]12C [Ginsenoside Rb1]
0.67	5.04 ± 0.98	O=c1c(O)c(-c2ccc(O)c(O)c2)oc2cc(O)cc(O)c12 [Quercetin]
1.5 ± 0.06	10.1 ± 4.53	CC(C)=CCC[C@](C)(O[C@@H]1O[C@H](CO[C@@H]2OC[C@H](O)[C@H](O)[C@H]2O)[C@@H](O)[C@H](O)[C@H]1O)[C@H]1CC[C@]2(C)[C@@H]1[C@H](O)C[C@@H]1[C@@]3(C)CC[C@H](O[C@@H]4O[C@H](CO)[C@@H](O)[C@H](O)[C@H]4O[C@@H]4O[C@H](CO)[C@@H](O)[C@H](O)[C@H]4O)C(C)(C)[C@@H]3CC[C@]12C [Ginsenoside Rb2]
0.67	4.8 ± 0.89	O=C(/C=C/c1ccc(O)c2c1[C@H](C(=O)O)[C@@H](c1ccc(O)c(O)c1)O2)O[C@H](Cc1ccc(O)c(O)c1)C(=O)O [Lithospermic acid]
0.67	8.69 ± 3.17	CC(C)=CCC[C@](C)(O[C@@H]1O[C@H](CO)[C@@H](O)[C@H](O)[C@H]1O)[C@H]1CC[C@]2(C)[C@@H]1[C@H](O)C[C@@H]1[C@@]3(C)CC[C@H](O)C(C)(C)[C@@H]3[C@@H](O[C@@H]3O[C@H](CO)[C@@H](O)[C@H](O)[C@H]3O)C[C@]12C [Ginsenoside Rg1]
0.67	4.32 ± 2.1	CC(C)=CCC[C@](C)(O[C@@H]1O[C@H](CO[C@@H]2O[C@@H](CO)[C@H](O)[C@H]2O)[C@@H](O)[C@H](O)[C@H]1O)[C@H]1CC[C@]2(C)[C@@H]1[C@H](O)C[C@@H]1[C@@]3(C)CC[C@H](O[C@@H]4O[C@H](CO)[C@@H](O)[C@H](O)[C@H]4O[C@@H]4O[C@H](CO)[C@@H](O)[C@H](O)[C@H]4O)C(C)(C)[C@@H]3CC[C@]12C [Ginsenoside Rc]
0.67	8.38 ± 1.02	O=C(O)c1ccc(O)c(O)c1 [Protocatechuic acid]

Compound	Tmax [h]	half-life [h]
COc1ccc(-c2coc3cc(O)ccc3c2=O)cc1 [Formononetin]	0.17	5.07 ± 2.13

Same assay, conditions: rat plasma, QLQX suspension […] intragastrically, mean ± SD

Compound	Tmax	t1/2
CCN1C[C@]2(COC)[C@H](O)C[C@H](OC)[C@@]34[C@@H]5C[C@@]6(O)[C@H](OC(=O)c7ccccc7)[C@@H]5[C@@](O)([C@@H]([C@H](OC)[C@H]23)[C@@H]14)[C@@H](O)[C@@H]6OC [Benzoylaconine]	1.00 ± 0.00	18.63 ± 7.20
CC(C)(O)C1CCC(C)(C2C(O)CC3(C)C4CC(OC5OC(CO)C(O)C(O)C5O)C5C(C)(C)C(OC6OCC(O)C(O)C6O)CCC56CC46CCC23C)O1 (centres unmarked) [Astragaloside]	0.67 ± 0.00	5.74 ± 0.78
COC[C@@]12CC[C@H](OC)[C@]34C([C@H]([C@H](OC)[C@H]13)[C@]1(O)[C@H]3[C@@H](OC(=O)c5ccccc5)[C@](O)(C[C@H]34)[C@@H](OC)[C@@H]1O)N(C)C2 [Benzoylhypaconine]	0.67 ± 0.00	12.88 ± 3.47
COC[C@]12CN(C)C3[C@@H]4[C@H](OC)[C@H]1[C@@]3([C@@H](OC)C[C@H]2O)[C@@H]1C[C@@]2(O)[C@H](OC(=O)c3ccccc3)[C@@H]1[C@]4(O)[C@@H](O)[C@@H]2OC [Benzoylmesaconine]	0.67 ± 0.11	8.23 ± 2.02
COC[C@]12CN(C)[C@@H]3[C@@H]4[C@H](OC)[C@H]1[C@@]3([C@@H](OC)C[C@H]2O)[C@@H]1C[C@@]2(O)[C@H](OC(=O)c3ccccc3)[C@@H]1[C@]4(OC(C)=O)[C@@H](O)[C@@H]2OC [Mesaconitine]	0.17 ± 0.06	6.23 ± 1.23
